Source: US20250052985A1, “SYSTEM AND METHOD FOR QUANTITATIVE PHASE IMAGING FOR MULTI-PARAMETRIC SCREENING OF TUMOR THERAPY RESPONSE” (UNIVERSITY OF UTAH RESEARCH FOUNDATION, priority 2023, published 2025)
Several values for one entry are separate records, joined by “and”; a condition that tells them apart may be missing. Equal values may be shown once. Read-outs that look alike come from different tables or passages of the source.

Legend:
[1] = system: BT-474 cells; assay: cells; settings: for Max Asymptote / Min Asymptote: BT-474, 4-parameter Hill fit of mean SGR vs concentration, one line per replicate; for Hill Slope / log10(EC50): BT-474, Hill fit; for EC50: Homo sapiens
Source text: (§1) In some embodiments, breast cancer cell lines are imaged, representing diverse clinical subtypes, summarized in Table 2 below, using a QPI microscope (FIG. 1A) based on differential phase contrast (DPC) microscopy and phase reconstruction via a QPI microscope system. DPC is used for image acquisition and phase reconstruction because DPC's flexible design may be customized for high throughput phase measurements. […] As illustrated in the embodiment of FIG. 1A, a QPI microscope system 100 conducts assays in a 96-well plate (e.g., a well-plate 105) with 6-point dose response curves and up to five therapies in triplicate including solvent controls, summarized in Table 4 below. As described below, in reference to FIG. 1A, a growth response of cells is measured noninvasively using QPI via a QPI microscope system 110 before being assayed using a CTG reader 115.
(§2) FIG. 1B illustrates a timeline plot 200 showing two plates (e.g., two, separate well-plates 105) set up in parallel to measure cell viability. With reference to FIG. 1B, two plates are set-up simultaneously for each experiment. A first plate 205 is incubated for 27 hours (h) post drug exposure prior to CTG analysis (3 h equilibration+24 h of imaging), which measures cell adenosine triphosphate (ATP) content as a surrogate for cell viability. A second plate 210 is imaged for 72 h after 3 h equilibration (e.g., 75 h) and followed by CTG. […] The imaging locations are imaged for 72 h, as shown by images 1700-1715 of FIG. 7.
(§3) In some embodiments, a dose-dependent change in growth, as indicated by a change in the rate of mass accumulation or loss, is a parameter that can be extracted from QPI dose-response data. […] Individual specific growth rate measurements are indicated by points in the distribution of the graph 1200 of FIG. 2A. Blue is indicative of the DMSO control and red is indicative of doxorubicin. The black outline is a kernel density function fit to the distribution of specific growth rates for each condition (e.g., *p<0.05, **p<0.01). In some embodiments, the average SGR of each condition is fit to a sigmoid dose-response curve using a Hill equation. For example, computed logistic fit parameters using a 4-parameter Hill model via the QPI microscope system 110 for all conditions are summarized in Tables 5-8 below. To determine if there is a response, as illustrated by FIG. 2B, the QPI microscope system 110 tests goodness of fit, adjusts for degrees of freedom using an F-test at significance p<0.01 by comparison to a flat line, as an indicator of no response. For cases with a better fit to the Hill equation, the 4-parameter Hill curve may be used by the QPI microscope system 110 to determine the EC50, a measure of sensitivity to therapy because it represents the effective concentration at which 50% of the cells respond to therapy, as illustrated by FIG. 10. […] A 4-parameter Hill curve is fit to each dose response plot to extract the depth of response and EC50 for each cell/drug pair. A flat line represents no response due to failure of the F-test to reject the null hypothesis that the logistic fit is indistinguishable from a flat line. […] Each color indicates a different drug or therapy used.

[2] = system: MCF-7 cells; assay: cells; settings: for Hill Slope / log10(EC50): MCF-7, Hill fit; for EC50: Homo sapiens
Source text: as §1, §2, §3

[3] = system: MDA-MB-231 cells; assay: CellTiter-Glo (CTG) ATP viability assay, MDA-MB-231; type: cell-based; settings: for Min Asymptote: MDA-MB-231, Hill fit of luminescence normalized to solvent control, one line per replicate; for EC50: Homo sapiens
Experimental: CTG (e.g., read by the CTG reader 115) is a cell viability assay that quantifies the amount of ATP present at the end of an experiment as an indicator of the number of live cells. The electronic controller 155 measures ATP content in each condition as a readout by a luminescent signal, which is normalized by the luminescence of the control (e.g., a control well) to determine cell viability relative to on-plate controls. In some embodiments, the CTG assay is performed by first removing 100 μL of media from each well on the well-plate 105, which is then replaced with an equal amount of CellTiter-Glo reagent (e.g., Promega, G7572). Assayed plates may be shaken at 500 RPM for 20 minutes and allowed to rest for 10 minutes. In some instances, 100 μL of volume from each well is transferred to a white 96-well plate (e.g., Perkin Elmer, 6005680). The electronic controller 155 collects luminescence data from each well using an Envision plate reader (e.g., Perkin Elmer) and normalized against the solvent control to measure ATP content. The electronic controller 155 fits a 4-parameter hill curve to the dose response to determine the EC50 and depth of response.

[4] = system: MDA-MB-231 cells; assay: Quantitative phase imaging (QPI) growth response, MDA-MB-231; type: cell-based; parameters: DoR QPI: scale not given here; ToR 20 μM: unit not given here; settings: for Max Asymptote / Min Asymptote: MDA-MB-231, 4-parameter Hill fit of mean SGR vs concentration, one line per replicate; for EC50: Homo sapiens; for SGR (specific growth rate) / tD: one individual MDA-MB-231 cell, 2 μM doxorubicin
Source text: as §1, §2, §3

[5] = 24 h QPI, EC50 in μM per Table 1
[6] = 72 h QPI, EC50 in μM per Table 1

log10(EC50) [1, 5]: −0.2827 and −0.2235
log10(EC50) [1, 6]: 0.3361 and 0.3186
EC50 ([1]; BT-474, 24 h, read-out: log10(EC50), 24 h QPI, BT-474, Hill fit (converted), EC50 in μM per Table 1): 1.78 µM
EC50 ([1]; BT-474, 72 h, read-out: log10(EC50), 72 h QPI, BT-474, Hill fit (converted), EC50 in μM per Table 1): 0.475 µM
EC50 ([1]; BT-474, read-out: EC50, QPI, BT-474 cell line, QPI growth rate): 0.5 µM
log10(EC50) [2, 5]: 0.2581
log10(EC50) [2, 6]: 0.7197 and 0.7012
EC50 ([2]; MCF7, 72 h, read-out: log10(EC50), 72 h QPI, MCF-7, Hill fit (converted), EC50 in μM per Table 1): 0.235 µM
EC50 ([2]; MCF7, read-out: EC50, QPI, MCF-7 cell line, QPI growth rate): 0.2 µM
EC50 ([2]; MCF7, read-out: EC50, SD, MCF-7 cell line, EC50 of the standard deviation): 11 µM
log10(EC50) ([3]; 72 h CTG, MDA-MB-231, Hill fit): 0.5401
EC50 ([3]; MDA-MB-231, 24 h, 24 h CTG, MDA-MB-231, Hill fit, read-out: log10(EC50) (converted)): 1250 nM
EC50 ([3]; MDA-MB-231, 72 h, 72 h CTG, MDA-MB-231, Hill fit, read-out: log10(EC50) (converted)): 204 nM
EC50 ([3]; MDA-MB-231, MDA-MB-231 cell line, CellTiter-Glo, read-out: EC50, CTG): 300 nM
log10(EC50) ([4]; 72 h QPI, MDA-MB-231, Hill fit, EC50 in μM per Table 1): 1.0414
EC50 ([4]; MDA-MB-231, 72 h, 72 h QPI, MDA-MB-231, Hill fit, EC50 in μM per Table 1, read-out: log10(EC50) (converted)): 0.0794 µM
EC50 ([4]; MDA-MB-231, MDA-MB-231 cell line, EC50 of the standard deviation, read-out: EC50, SD (converted)): 0.549 µM
EC50 ([4]; MDA-MB-231, MDA-MB-231 cell line, QPI growth rate, read-out: EC50, QPI): 0.1 µM
SMILES: COc1cccc2c1C(=O)c1c(O)c3c(c(O)c1C2=O)C[C@@](O)(C(=O)CO)C[C@@H]3O[C@H]1C[C@H](N)[C@H](O)[C@H](C)O1 [Doxorubicin]
Max Asymptote ([1]; 24 h QPI): 0.01297 and 0.01051 and 0.00993
Min Asymptote ([1]; 24 h QPI): −0.001567 and −0.002506 and −0.002371
Hill Slope ([1]; 24 h QPI): 1.5047 and 1.6529 and 1.3096
Max Asymptote ([1]; 72 h QPI): −0.00359 and −0.003807 and −0.003696
Min Asymptote ([1]; 72 h QPI): 0.009626 and 0.009175 and 0.009318
Hill Slope ([1]; 72 h QPI): 3.7081 and 4.795 and 3.6266
DoR QPI ([1]; BT-474 cell line, depth of response, QPI): 1.4
ToR 20 μM ([1]; BT-474 cell line, time of response at 20 μM): 3.4
cluster mass tracked over time ([1]; small cluster of BT-474 cells, 2 μM, 72 h): losing mass
Max Asymptote ([2]; 24 h QPI, MCF-7, 4-parameter Hill fit of mean SGR vs concentration, one line per replicate): 0.03024 and 0.03614 (2×)
Hill Slope ([2]; 24 h QPI): 0.4225 and 0.5056
Min Asymptote ([2]; 72 h QPI, MCF-7, 4-parameter Hill fit of mean SGR vs concentration, one line per replicate): 0.02487 and 0.02696 and 0.02807
Hill Slope ([2]; 72 h QPI): 1.1171 and 1.2782 and 1.7872
SGR minimum (mean±standard deviation, SD) ([2]; MCF-7, 20 μM, highest dose tested): −0.003+0.004 h^−1
DoR QPI ([2]; MCF-7 cell line, depth of response, QPI): 1.1
ToR 20 μM ([2]; MCF-7 cell line, time of response at 20 μM): −1.3
Hill Slope ([3]; 24 h CTG, MDA-MB-231, Hill fit): 1.125
Min Asymptote ([3]; 24 h CTG): 0.4072
Hill Slope ([3]; 72 h CTG, MDA-MB-231, Hill fit): 0.8064 and 0.7906
Min Asymptote ([3]; 72 h CTG): 0.01711 and 0.03777 (2×)
DoR CTG ([3]; MDA-MB-231 cell line, depth of response, CellTiter-Glo): 1.0
Max Asymptote ([4]; 24 h QPI): 0.03123 and 0.03492 and 0.03444
Min Asymptote ([4]; 24 h QPI): 0.002229 and 0.006476 and 0.003476
Hill Slope ([4]; 24 h QPI, MDA-MB-231, Hill fit): 1.1528 and 1.2328 and 1.1155
Max Asymptote ([4]; 72 h QPI): 0.0002323 and 0.002183
Min Asymptote ([4]; 72 h QPI): 0.03291 and 0.03136
Hill Slope ([4]; 72 h QPI, MDA-MB-231, Hill fit): 0.9982 and 1.1886
Hellinger distance of SGR distribution from control ([4]; MDA-MB-231, 0.08 μM): greater than the threshold indicating a response
Hellinger distance of SGR distribution from control ([4]; MDA-MB-231, 0.4 μM): much greater Hellinger distance from the control
reduction of heterogeneity (SD of growth rates) ([4]; MDA-MB-231, 20 μM, 72 h): fourfold
growth rate and heterogeneity over time ([4]; MDA-MB-231, highest concentration, FIG. 21 F): simultaneously decreases in growth rate and heterogeneity
growth rate and heterogeneity over time ([4]; MDA-MB-231, middle concentrations, FIG. 21 C-E): change in growth rate over time with little to no change in heterogeneity
DoR QPI ([4]; MDA-MB-231 cell line, depth of response, QPI): 1.0
ToR 20 μM ([4]; MDA-MB-231 cell line, time of response at 20 μM): −3.0
SGR (specific growth rate) ([4]; abrupt decrease in mass during cell death): -0.217 h⁻¹
tD ([4]; first 10 h): 19 h
SGR (specific growth rate) ([4]; first 10 h, robust growth): 0.0358 h⁻¹
tD ([4]; next 26 h): 66 h
SGR (specific growth rate) ([4]; next 26 h, reduced growth): 0.0105 h⁻¹
SGR (specific growth rate) ([4]; subsequent gradual loss of mass): -0.0033 h⁻¹
